Experimental data taken from publication PMC8214221, “Sequence determinants in the cathelicidin LL-37 that promote inflammation via presentation of RNA to scavenger receptors” (The Journal of Biological Chemistry, 2021).
Residues, ends and D or L forms follow the SMILES beside them.

Tests used:
[1] = test system: NHEKs, IL-6 secretion in response to U1 dsRNA; test: IL-6 secretion ELISA in NHEKs; assay type: cell-based, human; conditions: U1 dsRNA 2.5 μg/ml + peptide 2 μM, 18 h, n = 3
Summary of the method: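 NHEKs (also HDMECs) exposed to LL-34 parent or alanine-scan peptides at 2 μM, alone or with U1 dsRNA (2.5 μg/ml), for 18 h. Secreted IL-6 in supernatant quantified by sandwich ELISA (n = 3).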

[2] = test system: C57BL/6 mouse ear skin inflammation; test: Intradermal ear injection with U1 dsRNA in mice; assay type: in vivo; conditions: 24 h; for Gene expression of IL-6 and CXCL10 in mouse ears: C57BL/6 female mice, intradermal ear coinjection of 25 μg U1 dsRNA and 16 μM peptide, qRT-PCR, mutants compared with U1 dsRNA + LL-34 parent; for Mast cells in mouse ear skin (flow cytometry) / Macrophage and neutrophil recruitment in mouse ear skin (flow cytometry): C57BL/6 mice, intradermal coinjection of 25 μg U1 dsRNA and 16 μM peptide, n = 3; for Mast cells in mouse ear skin (flow cytometry): frequency of gated live cells; for Macrophage and neutrophil recruitment in mouse ear skin (flow cytometry): mutants compared with LL-34 parent + U1 dsRNA
Protocol: C57BL/6 female mice at 8 weeks old were injected in the ears intradermally with a single injection of 25 μg of U1 dsRNA and/or LL-34 parent, Pep I24A, or Pep L31A. We investigated gene expression of IL-6, CXCL10, and TSLP in these mice (Fig. 2, B–D). […] This was in agreement with the in vitro results (Fig. 1). We also looked at the infiltration of immune cells to the mouse ear skin with flow cytometry.
Figure 2 LL-34-I24A and LL-34-L31A peptides loose vetting activity in vivo. C57BL/6 mice ears were injected intradermally with either 25 μg of U1 dsRNA, 16 μM LL-34-parent, LL-34-I24A, and LL-34-L31A as shown in the figure for 24 h (n = 6). A, H&E staining of cross sections of mice injected with U1 dsRNA or LL-34 peptides is shown. The bar represents […]. B–D, gene expression changes for IL-6, CXCL10, and TSLP were assessed with qRT-PCR. GAPDH was used as a reference gene. E–G, flow cytometry analysis was performed to assess the infiltration of immune cells in mouse ears injected with U1 dsRNA alone or a combination of U1 dsRNA and LL-34 peptides. Data are represented as the frequency of gated live cells for mast cells, macrophages, and neutrophils. (n = 3) (∗p < 0.05; ∗∗p < 0.01; ∗∗∗p < 0.001; ∗∗∗∗p < 0.0001). One way-ANOVA was used. LL-34, 34-amino acid peptide; ns, not significant.
All mouse procedures were approved by the University of California, San Diego (UCSD) Institutional Animal Care and Use Program (protocol number: S09074). Eight-week-old female C57BL/6 wildtype mice were used for experiments. C57BL/6 mice ears were injected intradermally with U1 dsRNA and/or LL-34 peptides as described previously ([7]). Single injections were performed. A total of 30 μl was injected in the middle part of the ear. Twenty-four hours after the injection, mice were euthanized with CO2 asphyxiation and ears excised and immediately collected in cold RPMI complete medium on ice and processed for immunohistochemistry, gene expression analysis, and flow cytometry within 1 h.
Mouse ears were collected following euthanasia in cold complete RPMI media on ice and cut into small pieces within 60 min, then digested with 2.5 mg/ml collagenase D, and 30 ng/ml DNase1 for 2 h at 37 °C and then filtered through a 30 μm filter to generate single-cell suspension for fluorescence-activated cell sorting analyses. Cells were then stained with Fixable Viability Dye eFluor 506 (eBioscience; 65-0866-14) blocked with antimouse CD16/32 (eBioscience; 14016185, 1:50 dilution), followed by staining with antibody cocktails for immune cells. The antibody cocktail for immune cells included PECy7-CD11b (BioLegend; 101216, 1:200 dilution), FITC-Ly6G (eBioscience; 11593182, 1:150 dilution), PE-F4/80 (eBioscience; 12480182, 1:200 dilution), APC-CD11C (BioLegend; 117310, 1:100 dilution), AF700-MHCII (eBioscience; 56532182, 1:100 dilution), and c-Kit (Biolegend; 10581, 1:100 dilution). Fluorescence-activated cell sorting analyses for surface expression of immune cell markers were performed by the Biorad ZE5 machine and analyzed by FlowJo V10 software (BD Biosciences). Dead cells were gated out from the analyses.

Compound | IL-6 protein secretion, cotreatment with U1 dsRNA, vs U1 dsRNA + LL-34 parent [1] | Gene expression of IL-6 and CXCL10 in mouse ears [2] | Mast cells in mouse ear skin (flow cytometry) [2] | Macrophage and neutrophil recruitment in mouse ear skin (flow cytometry) [2]
CC[C@H](C)[C@H](NC(=O)[C@H](CCCCN)NC(=O)[C@H](CCC(=O)O)NC(=O)[C@H](CCCCN)NC(=O)[C@H](CO)NC(=O)[C@H](CCCCN)NC(=O)[C@H](CCCNC(=N)N)NC(=O)[C@H](Cc1ccccc1)NC(=O)[C@H](Cc1ccccc1)NC(=O)[C@H](CC(=O)O)NC(=O)CNC(=O)[C@H](CC(C)C)NC(=O)[C@@H](N)CC(C)C)C(=O)NCC(=O)N[C@@H](CCCCN)C(=O)N[C@@H](CCC(=O)O)C(=O)N[C@@H](Cc1ccccc1)C(=O)N[C@@H](CCCCN)C(=O)N[C@@H](CCCNC(=N)N)C(=O)N[C@H](C(=O)N[C@H](C(=O)N[C@@H](CCC(N)=O)C(=O)N[C@@H](CCCNC(=N)N)C(=O)N[C@@H](C)C(=O)N[C@@H](CCCCN)C(=O)N[C@@H](CC(=O)O)C(=O)N[C@@H](Cc1ccccc1)C(=O)N[C@@H](CC(C)C)C(=O)N[C@@H](CCCNC(=N)N)C(=O)N[C@@H](CC(N)=O)C(=O)N[C@@H](CC(C)C)C(=O)N[C@H](C(=O)N1CCC[C@H]1C(=O)N[C@@H](CCCNC(=N)N)C(=O)O)C(C)C)C(C)C)[C@@H](C)CC [LL-34—I24A] (H-LLGDFFRKSKEKIGKEFKRIVQRAKDFLRNLVPR-OH) | reduced secretion of IL-6 protein | significantly reduced | similarly increased mast cells | significant reduction in macrophage and neutrophil recruitment
CC[C@H](C)[C@H](NC(=O)[C@H](CCCCN)NC(=O)[C@H](CCC(=O)O)NC(=O)[C@H](CCCCN)NC(=O)[C@H](CO)NC(=O)[C@H](CCCCN)NC(=O)[C@H](CCCNC(=N)N)NC(=O)[C@H](Cc1ccccc1)NC(=O)[C@H](Cc1ccccc1)NC(=O)[C@H](CC(=O)O)NC(=O)CNC(=O)[C@H](CC(C)C)NC(=O)[C@@H](N)CC(C)C)C(=O)NCC(=O)N[C@@H](CCCCN)C(=O)N[C@@H](CCC(=O)O)C(=O)N[C@@H](Cc1ccccc1)C(=O)N[C@@H](CCCCN)C(=O)N[C@@H](CCCNC(=N)N)C(=O)N[C@H](C(=O)N[C@H](C(=O)N[C@@H](CCC(N)=O)C(=O)N[C@@H](CCCNC(=N)N)C(=O)N[C@H](C(=O)N[C@@H](CCCCN)C(=O)N[C@@H](CC(=O)O)C(=O)N[C@@H](Cc1ccccc1)C(=O)N[C@@H](CC(C)C)C(=O)N[C@@H](CCCNC(=N)N)C(=O)N[C@@H](CC(N)=O)C(=O)N[C@@H](C)C(=O)N[C@H](C(=O)N1CCC[C@H]1C(=O)N[C@@H](CCCNC(=N)N)C(=O)O)C(C)C)[C@@H](C)CC)C(C)C)[C@@H](C)CC [LL-34—L31A] (H-LLGDFFRKSKEKIGKEFKRIVQRIKDFLRNAVPR-OH) | reduced secretion of IL-6 protein | significantly reduced | significant decrease in mast cell number | significant reduction in macrophage and neutrophil recruitment
